In patent EP0908457B1, “3-(1,2-benzisothiazol- and isoxazol-5-Y1)-2,4(1H,3H)-pyrimidinedione or thione and 3-(1,2-benzisothiazol- and isoxazol-5-y1)-4(3H)-pyrimidinone or thione herbicidal agents” (BASF AKTIENGESELLSCHAFT, priority 1997, dated 1999):

Legend:
[1] = system: Monochoria vaginalis, Presl.; assay: Preemergence weed control under flooded paddy conditions, MOOVA (Monochoria); format: in vivo; details: flooded paddy; for herbicidal effect rating, MOOVA / MOOVA herbicidal effect rating: rated three to four weeks after treatment; for MOOVA: herbicidal effect rating 0-9, three to four weeks after treatment; as to herbicidal effect rating, MOOVA: meaning of each grade not given here
[2] = system: Cyperus serotinus, Rottb.; assay: Preemergence weed control under flooded paddy conditions, CYPSE (Flatsedge); format: in vivo; details: for herbicidal effect rating, CYPSE / CYPSE herbicidal effect rating: rated three to four weeks after treatment; for CYPSE: herbicidal effect rating 0-9, three to four weeks after treatment; as to herbicidal effect rating, CYPSE: meaning of each grade not given here
[3] = system: Cyperus iria; assay: Preemergence weed control under flooded paddy conditions, CYPIR (Rice Flatsedge); format: in vivo; details: flooded paddy; for herbicidal effect rating, CYPIR / CYPIR herbicidal effect rating: rated three to four weeks after treatment; for CYPIR: herbicidal effect rating 0-9, three to four weeks after treatment; as to herbicidal effect rating, CYPIR: meaning of each grade not given here
[4] = system: Echinochloa oryzoides (Ard.) Fritsch.; assay: Preemergence weed control under flooded paddy conditions, ECHORC (Watergrass (Calif.)); format: in vivo; details: flooded paddy; for herbicidal effect rating, ECHORC / ECHORC herbicidal effect rating: rated three to four weeks after treatment; for ECHORC: herbicidal effect rating 0-9, three to four weeks after treatment; as to herbicidal effect rating, ECHORC: meaning of each grade not given here
[5] = system: Oryza sativa, (L.) Tebonnet; assay: Rice tolerance to post-transplant applications under flooded paddy conditions (Example 187), ORYSAT (Rice, Tebonnet); details: for herbicidal effect rating ORYSAT / herbicidal effect rating, ORYSAT (rice tolerance) / ORYSAT herbicidal effect rating: rated three to four weeks after treatment; for ORYSAT: herbicidal effect rating 0-9, three to four weeks after treatment; as to herbicidal effect rating ORYSAT: meaning of each grade not given here
[6] = system: Sagittaria pygmaea, L.; assay: Preemergence weed control under flooded paddy conditions, SAGPY (Arrowhead (Pygmaea)); format: in vivo; details: flooded paddy; for herbicidal effect rating, SAGPY / SAGPY herbicidal effect rating: rated three to four weeks after treatment; for SAGPY: herbicidal effect rating 0-9, three to four weeks after treatment; as to herbicidal effect rating, SAGPY: meaning of each grade not given here
[7] = Rate 0.0320 kg/ha, preemergence
[8] = Rate 0.0620 kg/ha, preemergence
[9] = Rate 0.1250 kg/ha, preemergence
[10] = Rate 0.2500 kg/ha, preemergence
[11] = 0.0313 kg/ha, preemergence weeds
[12] = 0.0625 kg/ha, preemergence weeds
[13] = 0.1250 kg/ha, preemergence weeds
[14] = 0.2500 kg/ha, preemergence weeds
[15] = 0.0320 kg/ha, preemergence weeds
[16] = 0.0620 kg/ha, preemergence weeds

Cn1c(C(F)(F)F)cc(=O)n(-c2ccc3snc(C(C#N)(Cc4ccccc4)Cc4ccccc4)c3c2)c1=O [Example 582, 1,2-Benzisothiazole-3-acetonitrile, alpha,alpha-dibenzyl-5-[3,6-dihydro-3-methyl-2,6-dioxo-4-(trifluoromethyl)-1(2H)-pyrimidinyl]-]
herbicidal effect rating, MOOVA [1, 7]: 7.0 | herbicidal effect rating, MOOVA [1, 8]: 7.0 | herbicidal effect rating, MOOVA [1, 9]: 7.0 | herbicidal effect rating, MOOVA [1, 10]: 7.0 | herbicidal effect rating, CYPSE [2, 7]: 0.0 | herbicidal effect rating, CYPSE [2, 8]: 0.0 | herbicidal effect rating, CYPSE [2, 9]: 0.0 | herbicidal effect rating, CYPSE [2, 10]: 7.0 | herbicidal effect rating, CYPIR [3, 7]: 3.0 | herbicidal effect rating, CYPIR [3, 8]: 4.0 | herbicidal effect rating, CYPIR [3, 9]: 6.0 | herbicidal effect rating, CYPIR [3, 10]: 6.0 | herbicidal effect rating, ECHORC [4, 7]: 6.0 | herbicidal effect rating, ECHORC [4, 8]: 7.0 | herbicidal effect rating, ECHORC [4, 9]: 7.0 | herbicidal effect rating, ECHORC [4, 10]: 9.0 | herbicidal effect rating ORYSAT ([5]; Rate 0.0320 kg/ha): 0.0 | herbicidal effect rating ORYSAT ([5]; Rate 0.0620 kg/ha): 0.0 | herbicidal effect rating ORYSAT ([5]; Rate 0.1250 kg/ha): 0.0 | herbicidal effect rating ORYSAT ([5]; Rate 0.2500 kg/ha): 3.0 | herbicidal effect rating, SAGPY [6, 7]: 5.0 | herbicidal effect rating, SAGPY [6, 8]: 5.0 | herbicidal effect rating, SAGPY [6, 9]: 6.0 | herbicidal effect rating, SAGPY [6, 10]: 6.0

Cn1c(C(F)(F)F)cc(=O)n(-c2ccc3snc(C(=O)NS(=O)(=O)c4ccccc4)c3c2)c1=O [Example 352, 1,2-Benzisothiazole-3-carboxamide, 5-[3,6-dihydro-3-methyl-2,6-dioxo-4-(trifluoromethyl)-1(2H)-pyrimidinyl]-N-(phenylsulfonyl)-]
herbicidal effect rating, MOOVA [1, 7]: 6.0 | herbicidal effect rating, MOOVA [1, 8]: 9.0 | herbicidal effect rating, MOOVA [1, 9]: 9.0 | herbicidal effect rating, MOOVA [1, 10]: 9.0 | herbicidal effect rating, CYPSE [2, 7]: 0.0 | herbicidal effect rating, CYPSE [2, 8]: 0.0 | herbicidal effect rating, CYPSE [2, 9]: 1.0 | herbicidal effect rating, CYPSE [2, 10]: 0.0 | herbicidal effect rating, CYPIR [3, 7]: 2.0 | herbicidal effect rating, CYPIR [3, 8]: 6.5 | herbicidal effect rating, CYPIR [3, 9]: 7.5 | herbicidal effect rating, CYPIR [3, 10]: 9.0 | herbicidal effect rating, ECHORC [4, 7]: 2.5 | herbicidal effect rating, ECHORC [4, 8]: 4.0 | herbicidal effect rating, ECHORC [4, 9]: 6.5 | herbicidal effect rating, ECHORC [4, 10]: 9.0 | herbicidal effect rating ORYSAT ([5]; Rate 0.0320 kg/ha): 0.5 | herbicidal effect rating ORYSAT ([5]; Rate 0.0620 kg/ha): 1.0 | herbicidal effect rating ORYSAT ([5]; Rate 0.1250 kg/ha): 2.5 | herbicidal effect rating ORYSAT ([5]; Rate 0.2500 kg/ha): 3.0 | herbicidal effect rating, SAGPY [6, 7]: 2.5 | herbicidal effect rating, SAGPY [6, 8]: 5.0 | herbicidal effect rating, SAGPY [6, 9]: 9.0 | herbicidal effect rating, SAGPY [6, 10]: 9.0

CC(C)SCc1nsc2ccc(-n3c(=O)cc(C(F)(F)F)n(C)c3=O)cc12 [Example 202, 3-{3-[(Isopropylthio)methyl]-1,2-benzisothiazol-5-yl]-1-methyl-6-(trifluoromethyl)-2,4(1H,3H)-pyrimidinedione]
herbicidal effect rating, MOOVA [1, 11]: 0.0 | herbicidal effect rating, MOOVA [1, 12]: 0.0 | herbicidal effect rating, MOOVA [1, 13]: 0.0 | herbicidal effect rating, MOOVA [1, 14]: 0.0 | herbicidal effect rating, CYPSE [2, 11]: 0.0 | herbicidal effect rating, CYPSE [2, 12]: 0.0 | herbicidal effect rating, CYPSE [2, 13]: 0.0 | herbicidal effect rating, CYPSE [2, 14]: 0.0 | herbicidal effect rating, CYPIR [3, 11]: 9.0 | herbicidal effect rating, CYPIR [3, 12]: 9.0 | herbicidal effect rating, CYPIR [3, 13]: 9.0 | herbicidal effect rating, CYPIR [3, 14]: 9.0 | herbicidal effect rating, ECHORC [4, 11]: 1.0 | herbicidal effect rating, ECHORC [4, 12]: 1.0 | herbicidal effect rating, ECHORC [4, 13]: 2.0 | herbicidal effect rating, ECHORC [4, 14]: 2.0 | herbicidal effect rating, ORYSAT (rice tolerance) ([5]; 0.0313 kg/ha): 3.0 | herbicidal effect rating, ORYSAT (rice tolerance) ([5]; 0.0625 kg/ha): 4.0 | herbicidal effect rating, ORYSAT (rice tolerance) ([5]; 0.1250 kg/ha): 5.0 | herbicidal effect rating, ORYSAT (rice tolerance) ([5]; 0.2500 kg/ha): 6.0 | herbicidal effect rating, SAGPY [6, 11]: 0.0 | herbicidal effect rating, SAGPY [6, 12]: 0.0 | herbicidal effect rating, SAGPY [6, 13]: 0.0 | herbicidal effect rating, SAGPY [6, 14]: 0.0

CN(C)/N=C/c1nsc2ccc(-n3c(=O)cc(C(F)(F)F)n(C)c3=O)cc12 [Example 409, 1,2-Benzisothiazole-3-carboxaldehyde, 5-[3,6-dihydro-3-methyl-2,6-dioxo-4-(trifluoromethyl)-1(2H)-pyrimidinyl]-, 3-(dimethylhydrazone), (E)-]
MOOVA [1, 15]: 9.0 | MOOVA [1, 16]: 9.0 | MOOVA [1, 13]: 9.0 | MOOVA [1, 14]: 9.0 | CYPSE [2, 15]: 2.0 | CYPSE [2, 16]: 5.0 | CYPSE [2, 13]: 9.0 | CYPSE [2, 14]: 9.0 | CYPIR [3, 15]: 7.0 | CYPIR [3, 16]: 9.0 | CYPIR [3, 13]: 9.0 | CYPIR [3, 14]: 9.0 | ECHORC [4, 15]: 3.0 | ECHORC [4, 16]: 4.0 | ECHORC [4, 13]: 9.0 | ECHORC [4, 14]: 9.0 | ORYSAT ([5]; 0.0320 kg/ha): 3.0 | ORYSAT ([5]; 0.0620 kg/ha): 5.0 | ORYSAT ([5]; 0.1250 kg/ha): 7.0 | ORYSAT ([5]; 0.2500 kg/ha): 9.0 | SAGPY [6, 15]: 2.0 | SAGPY [6, 16]: 4.0 | SAGPY [6, 13]: 7.0 | SAGPY [6, 14]: 9.0

COC(=O)COc1ccc(-c2nsc3ccc(-n4c(=O)cc(C(F)(F)F)n(C)c4=O)cc23)cc1 [Example 257, Acetic acid, {p-{5-[3,6-dihydro-3-methyl-2,6-dioxo-4-(trifluoromethyl)-1(2H)-pyrimidinyl)-1,2-benzisothiazol-3-yl}phenoxy}-, methyl ester]
MOOVA herbicidal effect rating [1, 7]: 8.0 | MOOVA herbicidal effect rating [1, 8]: 9.0 | MOOVA herbicidal effect rating [1, 9]: 9.0 | MOOVA herbicidal effect rating [1, 10]: 9.0 | CYPSE herbicidal effect rating [2, 7]: 0.0 | CYPSE herbicidal effect rating [2, 8]: 0.0 | CYPIR herbicidal effect rating [3, 7]: 0.0 | CYPIR herbicidal effect rating [3, 8]: 2.0 | CYPIR herbicidal effect rating [3, 9]: 4.0 | CYPIR herbicidal effect rating [3, 10]: 6.0 | ECHORC herbicidal effect rating [4, 7]: 0.0 | ECHORC herbicidal effect rating [4, 8]: 0.0 | ECHORC herbicidal effect rating [4, 9]: 0.0 | ECHORC herbicidal effect rating [4, 10]: 0.0 | ORYSAT herbicidal effect rating ([5]; Rate 0.0320 kg/ha): 0.0 | ORYSAT herbicidal effect rating ([5]; Rate 0.0620 kg/ha): 0.0 | ORYSAT herbicidal effect rating ([5]; Rate 0.1250 kg/ha): 1.0 | ORYSAT herbicidal effect rating ([5]; Rate 0.2500 kg/ha): 2.0 | SAGPY herbicidal effect rating [6, 7]: 0.0 | SAGPY herbicidal effect rating [6, 8]: 0.0 | SAGPY herbicidal effect rating [6, 9]: 0.0 | SAGPY herbicidal effect rating [6, 10]: 0.0

CC(C)OP(=O)(Cc1nsc2ccc(-n3c(=O)cc(C(F)(F)F)n(C)c3=O)cc12)OC(C)C [Example 263, 1,2-Benzisothiazole-3-methanephosphonic acid, 5-[3,6-dihydro-3-methyl-2,6-dioxo-4-(trifluoromethyl)-1(2H)-pyrimidinyl]-, diisopropyl ester]
MOOVA herbicidal effect rating [1, 7]: 0.0 | MOOVA herbicidal effect rating [1, 8]: 0.0 | MOOVA herbicidal effect rating [1, 9]: 6.0 | MOOVA herbicidal effect rating [1, 10]: 9.0 | CYPSE herbicidal effect rating [2, 7]: 9.0 | CYPSE herbicidal effect rating [2, 8]: 9.0 | CYPSE herbicidal effect rating [2, 9]: 9.0 | CYPSE herbicidal effect rating [2, 10]: 9.0 | CYPIR herbicidal effect rating [3, 7]: 4.0 | CYPIR herbicidal effect rating [3, 8]: 7.0 | CYPIR herbicidal effect rating [3, 9]: 9.0 | CYPIR herbicidal effect rating [3, 10]: 9.0 | ECHORC herbicidal effect rating [4, 7]: 0.0 | ECHORC herbicidal effect rating [4, 8]: 0.0 | ECHORC herbicidal effect rating [4, 9]: 0.0 | ECHORC herbicidal effect rating [4, 10]: 2.0 | ORYSAT herbicidal effect rating ([5]; Rate 0.0320 kg/ha): 0.0 | ORYSAT herbicidal effect rating ([5]; Rate 0.0620 kg/ha): 0.0 | ORYSAT herbicidal effect rating ([5]; Rate 0.1250 kg/ha): 0.0 | ORYSAT herbicidal effect rating ([5]; Rate 0.2500 kg/ha): 4.0 | SAGPY herbicidal effect rating [6, 7]: 0.0 | SAGPY herbicidal effect rating [6, 8]: 0.0 | SAGPY herbicidal effect rating [6, 9]: 0.0 | SAGPY herbicidal effect rating [6, 10]: 0.0
